From patent publication EP4588908A1, “NEW PROSTACYCLIN FOR TREATING PULMONARY HYPERTENSION” (Shanghai Forefront Pharma Co., Ltd., priority 2023, dated 2025)

Legend:
male Sprague-Dawley rats [1] = assay: Fulton index measurement RV/(LV+S) in MCT-modelled PAH rats; format: in vivo
Description: (§1) Twenty-eight 7-week-old male Sprague-Dawley rats (average weight of 200-250 g) were purchased from Vital River and were raised at the experimental site for 1 week of acclimatization (temperature 20°C-26°C, humidity 30%-70%, light-dark cycle ratio 1:1) until they were 8 weeks old.
(§2) Twenty-eight rats were randomized into the following 6 groups, including dosing groups, positive control groups, a negative control group and a healthy control group, and each was marked with ear tags.
(§3) • (1) Preparation of monocrotaline (MCT) solution: An adequate amount of MCT was weighed into a 50 mL solution of 20% ethanol-normal saline. After gentle shaking, the solution was transferred to a 50-mL centrifuge tube, and placed tilted in a thermostatic shaker at 37°C, 220 rpm for 12-14 hours to fully dissolve until no visible crystalline particles observed. • (2) Injection of MCT solution: The skin on the dorsal cervical region of the rats was gently lifted, MCT solution was subcutaneously injected at a dose of 60 mg/kg using a 1-mL syringe and the day was recorded as Day 0. • (3) Healthy control: The same volume of normal saline was injected in the same manner.
(§4) According to the concentration of 0.6 mg/mL and 1.2 mg/mL (3-mg/kg/day and 6-mg/kg/day dose groups), appropriate amounts of the test compound were weighed and dissolved in corresponding volume of pure water by shaking to obtain transparent solution, respectively; • (2) The resulting solutions were stored in a 4°C refrigerator. Remove and equilibrate to room temperature before use;
(§5) Starting from Day 14, the rats were weighed daily, and the corresponding solutions (test compound or normal saline) were administered intragastrically according to the grouping protocol until Day 27, for a total of 14 days; the intragastric dose was 0.5 mL/100 g, and the body weight and survival data of the rats were recorded.
The tube was shaken upside down 6-8 times to mix; • (3) The lungs and heart were exposed by further opening the chest cavity; • (4) The left atrial appendage was cut open, a tube of heparinized saline was slowly injected using a 5-mL syringe into the right atrial appendage to flush the pulmonary vessels; • (5) The rat heart, lung, liver, spleen and kidney tissues were kept and frozen, and fixed with formaldehyde solution.
After separating the heart, the non-ventricular parts (such as the atria, blood vessels, and valve rings) were cut off. The intraventricular thrombus was removed as much as possible using forceps. The right ventricle (RV) and left ventricle (LV) + ventricular septum (LV+S) were separated by cutting along tense junction between the RV and interventricular septum (S) using straight scissors. The tissues were dried with gauze and weighed separately. RV/(LV+S) was calculated as the Fulton index. [drawing 107]

male Sprague-Dawley rats [2] = assay: Hemodynamic measurement (RVSP by right cardiac catheterization) in MCT-modelled PAH rats; format: in vivo
Description: as §1, §2, §3, §4, §5
On Day 28, the hemodynamic status of the rats was assessed using right cardiac catheterization: • (1) The PE-50 catheter, pressure transducer and pressure measuring workstation were prepared; the tubing was rinsed with heparinized saline to ensure that no bubbles remained in the tubing; the catheter was corrected to zero; • (2) The rats were anesthetized with 2% isoflurane at a flow rate of 2 L/min, and their limbs and incisors were fixed on the operating table with the cranial end to the operator; • (3) The fur on the surgical area of cervical region was shaved; • (4) The cervical skin was cut along the midline, pulled and fixed using hemostats, and the tissue was separated layer by layer using scissors to expose the right internal jugular vein; • (5) The internal jugular vein was bluntly dissected and isolated using hemostats; • (6) The distal end of the internal jugular vein was ligated using 4-0 sutures, and a suture was passed through the proximal end for later use; • (7) A V-shaped incision was made in the internal jugular vein using ophthalmic scissors, and a PE-50 catheter was inserted through the incision. After the catheter was placed, the pre-placed suture at the proximal end of the internal jugular vein was ligated to secure the catheter; • (8) The catheter reached the right atrium and right ventricle in turn; the right atrial pressure and right ventricular pressure were recorded; at least 5 stable waveforms were recorded at each site; 5 continuous waveforms were taken as segments, and more than 2 segments were intercepted to calculate the right ventricular systolic pressure (RVSP); • (9) The PE-50 catheter was removed and the examination was completed.

[3] = Dissolution in water when preparing the test compound solutions; format: physicochemical; details: pure water; 0.6 mg/mL and 1.2 mg/mL gave transparent solution
Description: as §4

[4] = 60(30mpk bid) mg/kg/day, Group 7, same experimental method
[5] = 3 mg/kg/day intragastric from Day 14, MCT 60 mg/kg rats, RV/(LV+S), negative control 0.61, healthy control 0.29
[6] = 6 mg/kg/day intragastric from Day 14, MCT 60 mg/kg rats, RV/(LV+S), negative control 0.61, healthy control 0.29
[7] = 3 mg/kg/day intragastric from Day 14, MCT 60 mg/kg rats, negative control 63±7.34, healthy control 22±2.41
[8] = 6 mg/kg/day intragastric from Day 14, MCT 60 mg/kg rats, negative control 63±7.34, healthy control 22±2.41

**Q.** Which Fulton index (male Sprague-Dawley rats [1]; [4]) does the source give for O=C(O)COC[C@H]1CC[C@H](COC(=O)N(c2ccccc2)c2ccc(Cl)cc2)CC1 [Ralinepag] here?
**A.** 0.35

**Q.** What about the “RVSP mmHg” value (male Sprague-Dawley rats [2]; [4]) of the same compound?
**A.** 22 mmHg

**Q.** What does the source list for CCCCC[C@H](O)CC[C@@H]1[C@H]2Cc3cccc(OCC(=O)O)c3C[C@H]2C[C@H]1O [Compound C1, Treprostinil sodium 5.5-hydrate]?
**A.** Fulton index (male Sprague-Dawley rats [1]; [5]): 0.38 ± 0.10; Fulton index (male Sprague-Dawley rats [1]; 3 mg/kg/day intragastric from Day 14, MCT 60 mg/kg rats, RV/(LV+S), negative control 0.61, healthy control 0.29, listed as Compound C1M): 0.38+0.10; Fulton index (male Sprague-Dawley rats [1]; [6]): 0.37 ± 0.07; Fulton index (male Sprague-Dawley rats [1]; 6 mg/kg/day intragastric from Day 14, MCT 60 mg/kg rats, RV/(LV+S), negative control 0.61, healthy control 0.29, listed as Compound C1H): 0.37+0.07; Solubility in water [3]: can be directly dissolved in water; RVSP mmHg (male Sprague-Dawley rats [2]; [7]): 46 ± 13.45 mmHg; RVSP mmHg (male Sprague-Dawley rats [2]; 3 mg/kg/day intragastric from Day 14, MCT 60 mg/kg rats, negative control 63±7.34, healthy control 22±2.41, listed as Compound C1M): 46+13.45 mmHg; RVSP mmHg (male Sprague-Dawley rats [2]; [8]): 38 ± 8.86 mmHg; RVSP mmHg (male Sprague-Dawley rats [2]; 6 mg/kg/day intragastric from Day 14, MCT 60 mg/kg rats, negative control 63±7.34, healthy control 22±2.41, listed as Compound C1H): 38+8.86 mmHg

**Q.** With CCCCC[C@H](O)CC[C@H]1[C@H](O)[C@@H](CC)[C@@H]2Cc3c(cccc3OCC(=O)O)C[C@@H]21 [Compound 1] as the compound, how does the Fulton index (male Sprague-Dawley rats [1]; [5]) read?
**A.** 0.37 ± 0.12

**Q.** What about the Fulton index (male Sprague-Dawley rats [1]; 3 mg/kg/day intragastric from Day 14, MCT 60 mg/kg rats, RV/(LV+S), negative control 0.61, healthy control 0.29, listed as Compound 1M) of the same compound?
**A.** 0.37+0.12

**Q.** And the Fulton index (male Sprague-Dawley rats [1]; [6])?
**A.** 0.25 ± 0.27

**Q.** What about the Fulton index (male Sprague-Dawley rats [1]; 6 mg/kg/day intragastric from Day 14, MCT 60 mg/kg rats, RV/(LV+S), negative control 0.61, healthy control 0.29, listed as Compound 1H) of the same compound?
**A.** 0.25±0.27

**Q.** What about the Solubility in water [3] of the same compound?
**A.** can be directly dissolved in water

**Q.** What about the “RVSP mmHg” value (male Sprague-Dawley rats [2]; [7]) of the same compound?
**A.** 41 ± 16.27 mmHg

**Q.** What about the “RVSP mmHg” value (male Sprague-Dawley rats [2]; 3 mg/kg/day intragastric from Day 14, MCT 60 mg/kg rats, negative control 63±7.34, healthy control 22±2.41, listed as Compound 1M) of the same compound?
**A.** 41±16.27 mmHg

**Q.** What about the “RVSP mmHg” value (male Sprague-Dawley rats [2]; [8]) of the same compound?
**A.** 22 ± 4.36 mmHg

**Q.** And the “RVSP mmHg” value (male Sprague-Dawley rats [2]; 6 mg/kg/day intragastric from Day 14, MCT 60 mg/kg rats, negative control 63±7.34, healthy control 22±2.41, listed as Compound 1H)?
**A.** 22+4.36 mmHg
